Values quoted from earlier work in patent US20200225249A1, “COMPOSITIONS AND METHODS FOR THE DIAGNOSIS AND TREATMENT OF DISEASES OF THE LIVER” (Viscient Biosciences, Inc., priority 2019, published 2020).

Key:
[1] = test system: NASH patients; conditions: clinical trial; Laurin J, et al., 1996
[2] = test system: rat hepatocytes; conditions: Shin M, et al., 1999
[3] = test system: QPRT; conditions: rat hepatocytes; Shin M, et al., 1999
[4] = test system: primary neurons and astrocytes; conditions: Braidy et al, 2011

Q: Which “symptoms of NASH patients” value [1] does the source give for `CCOC(=O)C(C)(C)Oc1ccc(Cl)cc1` [Clofibrate] here?
A: failed to improve the symptoms

Q: And the “NAD+ levels” value [2]?
A: increases NAD+ levels

Q: What about the QPRT expression [3] of the same compound?
A: stimulates QPRT expression

Q: With `O=C(O)c1ccccc1C(=O)O` [Phthalic acid, 1,2-Benzenedicarboxylic acid] as the compound, how does the cell viability [4] read?
A: reduced cell viability
